One data set concerns plasma proteins. As to conditions: concentration range of 0.1 to 2.0 μg/mL; cited from earlier work.
The conditions of data set [1]: cited from earlier work.
For data set [2] the following is noted: cited from earlier work. This is another data set of the same source.
The nature of data set [3]: Solubility of amantadine HCl in water. It is filed as physicochemical. As to conditions: 160 mg, 240 mg and 320 mg of amantadine HCl.

Each structure is given as a SMILES string. Structures can show the parent of a compound that is named as a salt.

For `NC12CC3CC(CC(C3)C1)C2` [Amantadine, amantadine], the “bound to plasma proteins” value with plasma proteins was 67%. Besides, the volume of distribution in data set [1] (after intravenous administration) was 3 to 8 L/kg. The “reduction of renal clearance of amantadine” value in data set [1] (coadministration of quinine or quinidine) was “about 30%”. Also, in data set [1] (in vivo), the “administered dose excreted unchanged in urine” value is reported as “approximately 85%” and the “metabolism as share of total clearance” value is listed as 5-15%. The average elimination half-life entry in data set [2] (patients on chronic maintenance hemodialysis) was “eight days”. Moreover, in data set [2] (single dose 25 to 75 mg, 7 healthy elderly male volunteers, range 0.06 to 0.17), the apparent plasma clearance is 1.67 ± 0.67 mL/min/kg. Also, the half-life – broadly, how long it takes for the measured level to halve – in data set [2] (single dose 25 to 75 mg, 7 healthy elderly male volunteers, range 20 to 41) was 29 ± 7 h.

In the case of `NC12CC3CC(CC(C3)C1)C2` [amantadine HCl, Amantadine Hydrochloride], the solubility in water result in data set [3] is listed as “soluble in 250 mL water”.

The record behind these values is patent US10213394B1, “Composition and method for treating neurological disease” (Osmotica Kereskedelmi és Szolgáltató Korlátolt Felelõsségû …, priority 2018, dated 2019).
